Columns and labels:
[1] = biological target: ROCK2 (Homo sapiens (Human), UniProt O75116); assay: ROCK2 Kinase Activity Assay (HTRF KinEASE-STK S2 kit); format: biochemical
Method: The kinase IC50 was determined by a commercialized CISBIO kinase detection kit, HTRF KinEASE-STK S2 kit (62ST2PEC). ROCK2 (01-119) employed in the reaction was purchased from Carna Biosciences.
Before the assay, the following working solutions as needed were formulated with corresponding reagents according to the instruction of the kinase detection kit: 1×kinase buffer, 5×STK-S2 substrate working solution (1.5 μM) and 5×ATP working solution (1.5 μM), 5×ROCK2 kinase working solution, 4×Streptavidin-XL665 working solution, and 4×STK-Ab-Cryptate 2 detection solution. Then the assay was performed according to the following procedure.
A solution of a compound at a concentration of 10000 nM was prepared with the 1×kinase buffer containing 2.5% DMSO. Gradient dilution of the solution of the compound was performed with the kinase buffer containing DMSO, so as to obtain solutions of a test compound at 9 different concentrations. In addition to wells of test compounds, a positive well (containing all the reagents except the compound) and a negative well (containing all the reagents except the test compound and kinase) were set. Except for the control wells (positive and negative wells), a solution of a test compound (4 μL) was added to each of the reaction wells, and a solution of 2.5% DMSO was added to the control wells. Then the substrate (2 μM, i.e., 2 μL 5×STK-S2 substrate working solution) was added to each of the reaction wells. The 5×ROCK2 kinase working solution (2 μL, containing 1.4 ng ROCK2 kinase) was added to each of the reaction wells except for the negative well, the volume of which was made up with the 1×kinase buffer (2 μL). The 5×ATP working solution (2 μL) was added to each of the reaction wells, and the mixtures were incubated at room temperature for 2 hours. After the kinase reaction was complete, the 4×Streptavidin-XL665 working solution was added to each of the reaction wells, the solutions were mixed, followed by immediate addition of the 4×STK-Ab-Cryptate 2 detection solution (5 μL), and the mixtures were incubated at room temperature for 1 hour. The fluorescence signal was read on ENVISION (Perkinelmer) (excitation wavelength: 320 nm, and emission wavelength: 665 nm and 615 nm). The inhibitory rate in each well was calculated based on the fluorescence intensity value: ER (Emission Ratio)=(fluorescence intensity at 665 nm/fluorescence intensity at 615 nm); inhibitory rate=(ERpositive−ERtest compound)/(ERpositive−ERnegative)*100%. Curves were plotted and fitted to obtain the median inhibitory concentration (IC50) of each teat compound with the PRISM 5.0 software.

[2] = test system: irradiated BALB/c recipient mice infused with C57BL/6 donor bone marrow and spleen cells; assay: Therapeutic effect in mice: allogeneic bone marrow/spleen cell transplantation GVHD model, survival rate; format: in vivo; settings: 30 mpk oral gavage once daily for 23 days, compared with the model group
Method: Male BALB/c recipient mice were irradiated with 8.5 Gy of total body irradiation (TBI) (Gammacell 40, NORPION International Co., Ltd., irradiation source: ^137Cs). A suspension of bone marrow cells (BMC) and spleen cells (SC) from C57BL/6 (H-2b) donor mice was prepared and infused via tail vein to irradiated BALB/c recipient mice at 0.5 mL/per mouse (containing 10×10^6 bone marrow cells and 6.25×10^6 spleen cells from the allogeneic C57BL/6 (H-2b) donor mice). Subsequently, the BALB/c mice were randomly divided into two groups: a model group (G2) and a compound 007 group (G3). An irradiation group (G4) (i.e., receiving ^137Cs irradiation only without donor mouse cell suspension infusion) and a syngeneic bone marrow transplantation group (G1) (a suspension containing 10×10^6 bone marrow cells from syngeneic BALB/c mice was administered to mice in this group via tail vein infusion). G1-G4 groups comprised 9 mice per group. The mice in the model group, the irradiation group and the syngeneic bone marrow transplantation group were administered with vehicle (a 0.2% Tween-80 aqueous solution) by oral gavage, once a day for 23 days. The mice in the compound 007 group were administered with 30 mpk of compound 007 by oral gavage, once daily for 23 days from the first day of model establishment. The survival rate of the animals was recorded daily.

[3] = test system: CD4 Naïve T cells from BALB/c mice mixed with C57BL/6 dendritic cells; assay: Allogeneic Mixed Lymphocyte Reaction, inflammatory factors in supernatant; format: cell-based, mouse; settings: 125 nM, 250 nM, 500 nM, 1000 nM; 5 days of culture; compared with control group
Method: Bone marrow cells from C57BL/6 (B6) mouse were isolated and incubated with granulocyte-macrophage colony stimulating factor (GM-CSF, 20 ng/mL, Biolegend, 713704) and interleukin-4 (IL-4, 10 ng/mL, Biolegend, 10715004) for 7 days, followed by addition of 20 ng/mL lipopolysaccharide (LPS) and incubation for 24 hours, the dendritic cells (DC) were collected. The CD4 Naïve T cells from BALB/c mice were extracted and isolated with a commercial kit (Dakewe, 480039). […] CD4 Naïve T cells and 25×10^3 DC cells were mixed and cultured. Compound 007 was added to the mixed cells at four concentrations (125 nM, 250 nM, 500 nM, and 1000 nM), respectively, and a control group (to which an equal amount of the medium was added) was set. After 5 days of culture, the supernatants were collected and kits were employed for the detection of inflammatory factors (IL-6 (Duyou, 1210602), TNF-α (Duyou, 1217202), IFN-γ (Duyou, 1210002), and IL-2 (Duyou, 1210202)).

Sequence of ROCK2 (O75116 1-553 limits assumed): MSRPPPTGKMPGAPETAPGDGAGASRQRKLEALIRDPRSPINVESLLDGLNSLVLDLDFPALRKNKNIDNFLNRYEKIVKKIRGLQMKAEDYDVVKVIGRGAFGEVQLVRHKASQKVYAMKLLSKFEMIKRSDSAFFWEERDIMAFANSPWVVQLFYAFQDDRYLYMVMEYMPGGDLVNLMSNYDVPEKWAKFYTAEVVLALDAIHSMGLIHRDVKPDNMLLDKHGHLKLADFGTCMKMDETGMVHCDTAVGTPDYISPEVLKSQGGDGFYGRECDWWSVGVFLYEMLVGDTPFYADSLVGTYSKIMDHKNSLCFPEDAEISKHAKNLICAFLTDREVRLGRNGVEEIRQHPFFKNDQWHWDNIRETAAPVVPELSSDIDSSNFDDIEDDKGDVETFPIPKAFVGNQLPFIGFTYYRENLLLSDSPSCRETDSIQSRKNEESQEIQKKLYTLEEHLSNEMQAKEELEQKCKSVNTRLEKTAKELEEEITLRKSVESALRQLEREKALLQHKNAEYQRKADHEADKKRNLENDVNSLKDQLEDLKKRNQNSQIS

Row | SMILES | IC50 [1] | survival rate [2] | levels of the inflammatory factors (IL-6, TNF-α, IFN-γ, IL-2) [3]
1 | O=C(C1CC(F)(F)C1)N1Cc2ccc(-c3nccc(Nc4ccc(-c5cn[nH]c5)cc4)n3)cc2C1 [Compound 020] | 0.044 µM | – | –
2 | O=C(N1Cc2ccc(-c3nccc(Nc4ccc(-c5cn[nH]c5)cc4)n3)cc2C1)N1CC(F)(F)C1 [Compound 022] | 0.075 µM | – | –
3 | Cn1c(C(=O)N2CC(F)(F)C2)cc2ccc(-c3nccc(Nc4ccc(-c5cn[nH]c5)c(F)c4)n3)cc21 [Compound 011] | 0.009 µM | – | –
4 | O=C(C1CC(F)(F)C1)N1Cc2ccc(-c3ncc(F)c(Nc4ccc(-c5cn[nH]c5)cc4)n3)cc2C1 [Compound 021] | 0.045 µM | – | –
5 | O=C(c1cc2ccc(-c3nccc(Nc4ccc(-c5cn[nH]c5)cc4)n3)cc2[nH]1)N1CC(F)(F)C1 [Compound 006] | 0.034 µM | – | –
6 | Fc1cc(Nc2ccnc(-c3ccc4cc(-c5nccs5)[nH]c4c3)n2)ccc1-c1cn[nH]c1 [Compound 128] | 0.027 µM | – | –
7 | Cn1c(C(=O)N2CC(F)(F)C2)cc2ccc(-c3ncc(F)c(Nc4ccc(-c5cn[nH]c5)cc4)n3)cc21 [Compound 009] | 0.012 µM | – | –
8 | O=C(c1cc2ccc(-c3nccc(Nc4ccc(-c5cn[nH]c5)c(F)c4)n3)cc2[nH]1)N1CC(F)(F)C1 [Compound 010] | 0.061 µM | – | –
9 | O=C(c1cc2ccc(-c3ncc(F)c(Nc4ccc(-c5cn[nH]c5)cc4)n3)cc2[nH]1)N1CC(F)(F)C1 [Compound 008] | 0.024 µM | – | –
10 | Cn1c(C(=O)N2CC(F)(F)C2)cc2ccc(-c3nccc(Nc4ccc(-c5cn[nH]c5)cc4)n3)cc21 [Compound 007] | 0.033 µM | significantly improved the survival rate | significantly reduced the levels of the inflammatory factors
